Among the test systems are CCRF-CEM leukemia; SK-MEL-28 melanoma; MOLT-4 leukemia; KM12 colon; LOX IMVI melanoma; MDA-MB-435; A549 NSCLC; NCI-H23 lung; MALME-3M melanoma; M14 melanoma.
What all share (assay): growth of human tumour cells (NCI), 48 h

SMILES strings stand for the structures.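 Step 1: Grow cells in 96-well plates. Step 2: Expose to compound for 48 hours at 5 concentrations. Step 3: Interpolate endpoints linearly; if unreached, use highest concentration. GI50 is the concentration that inhibits growth by half. TGI: total growth inhibition.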

Consider `C[C@@H]1CCC([C@@H](C)[C@H]2CC[C@H]3[C@@H]4CC[C@H]5C[C@@H](O)CC[C@]5(C)[C@H]4CC[C@]23C)=NC1`, for which the TGI is greater than 100 µM in the assay on CCRF-CEM leukemia; greater than 77.3 µM with SK-MEL-28 melanoma; greater than 66 µM in the assay with MOLT-4 leukemia; greater than 59.7 µM with KM12 colon; greater than 100 µM in the assay on LOX IMVI melanoma; greater than 100 µM in the assay with MDA-MB-435. For the same compound, the TGI with A549 NSCLC is greater than 100 µM; with NCI-H23 lung it was greater than 100 µM; in the assay on MALME-3M melanoma, greater than 100 µM; in the assay on M14 melanoma it was greater than 48.9 µM.
Regarding `N=C(N)SCc1c2ccccc2c(CSC(=N)N)c2ccccc12`, the GI50 in the assay with CCRF-CEM leukemia was 4.7 µM; in the assay with SK-MEL-28 melanoma, 10.6 µM; in the assay on MOLT-4 leukemia, 1.24 µM; in the assay on KM12 colon, 10.3 µM; in the assay with LOX IMVI melanoma, 1.4 µM; in the assay with MDA-MB-435, 12.1 µM. Besides, the GI50 was 3.61 µM in the assay with A549 NSCLC, 4.04 µM in the assay with NCI-H23 lung, 6.85 µM in the assay on MALME-3M melanoma and 10.9 µM in the assay with M14 melanoma. The TGI with CCRF-CEM leukemia is 36.1 µM; with SK-MEL-28 melanoma, 24.1 µM; in the assay with MOLT-4 leukemia, 8.23 µM; with KM12 colon, 23.4 µM; in the assay on LOX IMVI melanoma, 21.9 µM; in the assay on MDA-MB-435, 32.6 µM. Moreover, the TGI in the assay with A549 NSCLC came to 30.9 µM; in the assay on NCI-H23 lung, 20.5 µM; in the assay with MALME-3M melanoma, 25.2 µM; in the assay with M14 melanoma, 25.5 µM.
Regarding `CC(=O)Nc1c(I)c(NC(C)=O)c(I)c(C(=O)O)c1I`, the GI50 in the assay with CCRF-CEM leukemia, in the assay with SK-MEL-28 melanoma, with MOLT-4 leukemia, in the assay with KM12 colon, in the assay with LOX IMVI melanoma and in the assay with MDA-MB-435 was greater than 100 µM throughout. Further, the GI50 in the assay with A549 NSCLC, in the assay with NCI-H23 lung, in the assay with MALME-3M melanoma and with M14 melanoma was greater than 100 µM throughout. Also, the TGI with CCRF-CEM leukemia, in the assay on SK-MEL-28 melanoma, in the assay on MOLT-4 leukemia, with KM12 colon, in the assay on LOX IMVI melanoma and with MDA-MB-435 was greater than 100 µM in each case. The TGI with A549 NSCLC, in the assay on NCI-H23 lung, in the assay with MALME-3M melanoma and in the assay on M14 melanoma was greater than 100 µM throughout.
Turning to `CN1CCC2(CC1)NC(=O)c1c(c3ccc(Cl)c(Cl)c3n1C)C2C#N` (stereo not given), the GI50 with CCRF-CEM leukemia was 6.32 µM; with SK-MEL-28 melanoma it was 1.92 µM; with MOLT-4 leukemia, 4.52 µM; in the assay on KM12 colon, 3.84 µM; with LOX IMVI melanoma, 4.71 µM; with MDA-MB-435, 2.29 µM. The GI50 with A549 NSCLC was 7.33 µM; in the assay with NCI-H23 lung, 11.4 µM; in the assay with MALME-3M melanoma, 3.11 µM; in the assay with M14 melanoma, 2.73 µM. The TGI is greater than 54.8 µM in the assay on CCRF-CEM leukemia; 3.89 µM in the assay with SK-MEL-28 melanoma; greater than 28 µM in the assay with MOLT-4 leukemia; 8.55 µM in the assay on KM12 colon; 18.1 µM with LOX IMVI melanoma; 6.58 µM in the assay with MDA-MB-435. Moreover, the TGI with A549 NSCLC was determined as 24.6 µM; in the assay on NCI-H23 lung it was 25.7 µM; in the assay with MALME-3M melanoma, 9.52 µM; in the assay on M14 melanoma, 8.5 µM.
Turning to `COc1cc2c(cc1Cc1cccc(Cl)c1F)c(=O)c(C(=O)O)cn2[C@@H](CO)C(C)C`, the GI50 was 3.41 µM with CCRF-CEM leukemia; 6.63 µM in the assay with SK-MEL-28 melanoma; 4.67 µM in the assay with MOLT-4 leukemia; 4.03 µM in the assay on KM12 colon; 2.69 µM with LOX IMVI melanoma; 3.84 µM in the assay on MDA-MB-435. The GI50 was 3.11 µM in the assay with A549 NSCLC, 3.18 µM in the assay on NCI-H23 lung, 5.16 µM with MALME-3M melanoma and 3.65 µM in the assay with M14 melanoma. In addition, the TGI in the assay on CCRF-CEM leukemia is 14.2 µM; in the assay on SK-MEL-28 melanoma, 21.9 µM; in the assay with MOLT-4 leukemia it was 18.5 µM; with KM12 colon it was 13.1 µM; with LOX IMVI melanoma, 10.1 µM; with MDA-MB-435, 15.2 µM. Also, the TGI was 12.2 µM in the assay with A549 NSCLC, 12.4 µM with NCI-H23 lung, 18.9 µM in the assay with MALME-3M melanoma and 15 µM with M14 melanoma.
Regarding `Cc1ccc2c(c1)c(Sc1ccc(C(=O)NO)cc1)c1n2CN(C)CC1`, the GI50 is 1.3 µM with CCRF-CEM leukemia; 1.58 µM with SK-MEL-28 melanoma; 2.05 µM in the assay with MOLT-4 leukemia; 1.71 µM in the assay on KM12 colon; 1.59 µM with LOX IMVI melanoma; 1.58 µM with MDA-MB-435. Moreover, the GI50 in the assay with A549 NSCLC is 2.27 µM; in the assay on NCI-H23 lung it was 1.8 µM; with MALME-3M melanoma it was 1.35 µM; with M14 melanoma, 1.72 µM. Also, the TGI in the assay on CCRF-CEM leukemia was 9.52 µM; in the assay with SK-MEL-28 melanoma it was 3.63 µM; with MOLT-4 leukemia, 6.98 µM; in the assay with KM12 colon, 3.5 µM; in the assay with LOX IMVI melanoma it was 3.36 µM; in the assay on MDA-MB-435 it was 3.37 µM. For the same compound, the TGI is 5.81 µM in the assay on A549 NSCLC, 3.85 µM in the assay on NCI-H23 lung, 4.2 µM with MALME-3M melanoma and 3.79 µM with M14 melanoma.
Regarding `CCNC(=O)Nc1ccc(Oc2ccnc3ccc4c(ccn4C)c23)cc1`, the GI50 in the assay on CCRF-CEM leukemia is 18.9 µM; in the assay on SK-MEL-28 melanoma, 9.33 µM; in the assay on MOLT-4 leukemia it was 58.2 µM; with KM12 colon it was 37.7 µM; with LOX IMVI melanoma, 20.4 µM; in the assay on MDA-MB-435, greater than 100 µM. Besides, the GI50 with A549 NSCLC was 44.1 µM; in the assay with NCI-H23 lung, greater than 100 µM; in the assay with MALME-3M melanoma it was 38.3 µM; in the assay with M14 melanoma it was greater than 100 µM. The TGI in the assay on CCRF-CEM leukemia was greater than 100 µM; with SK-MEL-28 melanoma it was greater than 100 µM; with MOLT-4 leukemia, greater than 100 µM; in the assay on KM12 colon it was greater than 100 µM; in the assay with LOX IMVI melanoma, 40.7 µM; with MDA-MB-435, greater than 100 µM. The TGI in the assay with A549 NSCLC, in the assay on NCI-H23 lung, with MALME-3M melanoma and in the assay on M14 melanoma was greater than 100 µM each time.

Values taken from PubChem BioAssay (NCI).
